Test system: HCV-RMT strain
Assay: Evaluation of anti-HCV agents in Huh7 cells maintaining the RMT recombinant virus (triple mutation), HCV amount by real-time PCR
Assay type: cell-based, hepatitis C virus
Details: Huh7 cells 10 days after introduction of RMT-tri genome; agent added 16 hours after plating, total RNA purified 48 hours later; FIG. 8
Protocol: E1202G or the 3 acclimation mutations (E1202G, E1056V and A2199T) was/were introduced to pRMTx, and the obtained vectors were designated pRMTx-E1202G and pRMTx-tri, respectively. From pRMTx, pRMTx-E1202G and pRMTx-tri, viral genomic RNAs were prepared (RMT, RMT-E1202G and RMT-tri, respectively), and 30 μg each of the prepared genomic RNAs were introduced to Huh7 cells by electroporation. The cells were plated on a culture dish and subcultured 3 to 4 times per week, during which the cell were sampled. From the sampled cells, total RNA was purified by the AGPC method, and the copy number of the HCV genome per 1 μg of the total RNA was quantified according to a conventional method (Takeuchi et al., Gastroenterology, 1999) by reverse transcription real-time PCR using QuantiTect Multiplex PCR kit (manufactured by Qiagen). Daily changes in the copy number of the HCV genome in the cells to which RMT-RNA, RMT-E1202G-RNA and RMT-tri-RNA were respectively introduced are shown in FIG. 7.
Further, 10 days after the introduction of the genome, the cells in the state where the HCV genome was maintained were plated on a 96-well plate, and an agent was added thereto 16 hours later, followed by purification of total RNA 48 hours later from each well using ABI prizm 6100 and a purification kit (manufactured by Applied Biosystems). The HCV amount in the RNA, which was obtained by the above real-time PCR, and the total RNA amount quantified using an absorption spectrophotometer are shown in FIG. 8. As anti-HCV agents, an HCV polymerase inhibitor (MK0608), HCV protease inhibitor (BILN2061), IFN-α and cyclophilin inhibitor (cyclosporin A) were used.

| Molecule | growth inhibition capacities against HCV |
| --- | --- |
| COc1ccc2c(O[C@@H]3C[C@H]4C(=O)N[C@]5(C(=O)O)C[C@H]5/C=C\CCCCC[C@H](NC(=O)OC5CCCC5)C(=O)N4C3)cc(-c3csc(NC(C)C)n3)nc2c1 [BILN2061] | almost the same as those described in documents |
| IFN-α | almost the same as those described in documents |
| C[C@@]1(O)[C@H](O)[C@@H](CO)O[C@H]1n1ccc2c(N)ncnc21 [MK0608] | almost the same as those described in documents |
